The target in the assay is T1, recombinant HIV reverse transcriptase (HIV RTR) (Human immunodeficiency virus type 1 group M subtype B, UniProt P04585).
T1 construct: recombinant HIV reverse transcriptase
Kind of assay: Reverse Transcriptase Assay (incorporation of tritiated deoxyguanosine monophosphate into acid-precipitable cDNA). The format is biochemical. The settings on record: for inhibition of incorporation of deoxyguanosine monophosphate by HIV reverse transcriptase (in words): at the Km values of dGTP and poly r(C).oligo d(G)12-18; for IC50: poly r(C).oligo d(G)12-18 template, dGTP at about Km, 37° C., 45 minutes, read-out: calculated IC50. Here is the method: The assay measures the incorporation of tritiated deoxyguanosine monophosphate by recombinant HIV reverse transcriptase (HIV RTR) (or other RT) into acid-precipitable cDNA at the Km values of dGTP and poly r(C).oligo d(G)12-18.
Thirty uL of a reaction mixture containing equal volumes of: 500 mM Tris.HCl (pH 8.2), 300 mM MgCl2, 1200 mM KCl, 10 mM DTT, 400 μg/mL poly r(c).oligo d(G) [prepared by dissolving 1.5 mg (25 U) poly r(C).oligo d(G) in 1.5 ml sterile distilled H2 O and diluting to 400 μg/ml], 0.1 μCi/μl [^3 H] dGTP, 160 μM dGTP, was added to 10 μl sterile distilled H2 O, 2.5 μl of potential inhibitor. Ten μL of 3.2 nM purified HIV RTR were added to start the reaction. The mixture was incubated at 37° C. for 45 minutes.
After incubation was complete, the tubes were cooled in ice for 5 minutes. Ice-cold 13% TCA containing 10 mM NaPPi (200 μl) was added and the mixture incubated on ice for 30 minutes. The precipitated cDNA was removed by filtration using presoaked glass filters [TCA, NaPPi ]. The precipitate was then washed with 1N HCl, 10 mM NaPPi. The filter discs were then counted in a Packard scintillation counter.
Under these conditions [dGTP] and poly r(C).oligo d(G)12-18 each are approximately equal to the appropriate Km value. Approximately 5-6,000 cpm of [^3 H] GMP are incorporated into acid-precipitable material. The RT reaction is concentration- and time-dependent.

The source of these data is patent US5185251A, “Microbial transformation of a substituted pyridinone using actinoplanacete sp. MA 6559” (Merck & Co., Inc., priority 1991, dated 1993).

SMILES strings stand for the structures.

The term IC50 denotes the midpoint of a concentration-inhibition curve.

As for `Cc1[nH]c(=O)c(CCc2nc3ccccc3o2)cc1C(C)O` (racemic) [Compound (I), (+/-)-3-[2-(benzoxazol-2-yl)ethyl]-5-(1-hydroxyethyl)-6-methyl-2(1H)-pyridinone], the “inhibition of incorporation of deoxyguanosine monophosphate by HIV reverse transcriptase (in words)” value is reported as “inhibit this incorporation” and the IC50 was roughly 18.7 µM.

As to `CCc1cc(CCc2nc3ccccc3o2)c(=O)[nH]c1CO` [Compound (II), 3-[2-(benzoxazol-2-yl)ethyl]-5-ethyl-6-hydroxymethyl-2(1H)-pyridinone], the “inhibition of incorporation of deoxyguanosine monophosphate by HIV reverse transcriptase (in words)” value was “inhibit this incorporation” and the half-inhibitory concentration (IC50) is roughly 0.044 µM.
